Assay results from patent publication US20230236169A1, “NANOPLASMONIC BIOSENSOR FOR DETECTING AUTOPHAGY MARKER WITH HIGH SENSITIVITY, AND METHOD OF DETECTING AUTOPHAGY MARKER AND METHOD OF SCREENING DRUG CANDIDATE USING SAME” (KOREA UNIVERSITY RESEARCH AND BUSINESS FOUNDATION, priority 2021, published 2023).

Key:
Assay type in all cases: cell-based, human
MDA-MB-231 [1] = experiment: LC3 nanoplasmonic biosensor analysis of cell lysates of MDA-MB-231 cells; settings: 12 hours
MDA-MB-231 [2] = experiment: Cell viability (EZ-Cytox); settings: Baf A 50 nM or Tz 20 μg mL^−1; 6, 24 and 48 hours
Description: (§1) Each cell line was preincubated in 96 wells at 5×10^4 cells per well in a CO2 incubator (37° C., 5% CO2, 2-24 hours). […] Each well was treated with 10 μL of EZ-Cytox (DoGen Bio, Korea), followed by further incubation for at least 1 hour. Thereafter, UV-vis absorbance at 450 nm was recorded.

BT-474 [3] = experiment: Cell viability (EZ-Cytox); settings: Baf A 50 nM or Tz 20 μg mL^−1; 6, 24 and 48 hours
Description: as §1

Caov-3 cell line [4] = experiment: LC3 Western blotting and LC3 ELISA of Caov-3 cell lysates; settings: Baf A for 20 minutes and 24 hours, FIG. 14
Description: (§2) Each cell line was cultured in a 10-cm dish under appropriate conditions before cell lysate preparation. […] Caov-3 cells were treated with bafilomycin A1 (1 μM) and allowed to starve for 24 to 48 hours before adding a cytosolic LC3 removal reagent. […] Pellet cells were then washed with ice-cold PBS and incubated for 15 minutes with RIPA lysis buffer and inhibitors (Halt™ Protease and Phosphatase Inhibitor Cocktail). Thereafter, sonication and centrifugation were repeated to afford a cell lysate at a final concentration of 1.6×10^6 cells/mL.
The cell lysate prepared in Experimental Example 2 was quantified with a BCA assay kit (Thermo Fisher Scientific), and 40 μg thereof was loaded into each well. SDS-PAGE was conducted under conditions of 70 minutes or more, 15% gel, and 90 V. Primary (LC3B antibody, Cell Signaling) and secondary (goat anti-mouse, GenDEPOT) antibodies to LC3 were diluted 1:1000 and 1:5000, respectively, and respective antibodies to actin (anti beta-actin, AbFrontier) were also diluted 1:1000 and 1:10000. Other specific conditions were the same as the general protocol for Western blotting.

Caov-3 cell line [5] = experiment: LC3 nanoplasmonic biosensor analysis of cell lysates of Caov-3 cells
Description: as §2, with “Caov-3 cells were treated with bafilomycin A1 (1 μM) and allowed to starve for 24 to 48 hours before adding a cytosolic LC3 removal reagent.” left out
(§3) Cleanly washed microscope coverslip slides were pretreated with 10% (v/v) APTES for 1 hour, and then drop-coated with 10 μL of a diluted immuno-AuNR solution (OD: about 0.05). A closed water-bath microfluidic detection chamber including two coverslip slides with a gasket interposed therebetween was assembled and securely fixed for sample incubation and biosensing (FIG. 1). The detection chamber was then mounted on an automated dark-field microscope stage and a syringe pump was connected to the inlet of the detection chamber. Unbound immunogold on the surface of the coverslip slides was removed using ultrapure water at a flow rate of 100 μL min^−1 for 1 hour, followed by treatment with 1 mL of a 0.2 M ethanolamine solution for 30 minutes to inactivate unreacted functional groups. Thereafter, at least 10 μL of LC3 sample and PEBP1 (2 μg mL^−1) were injected into the chamber and incubated for 4 hours and 30 minutes, respectively, and contaminants were washed with ultrapure water before biosensing.
(§4) The LSPR wavelength of each immunogold was recorded three times throughout the experiment: 1) before LC3 sample injection, 2) after LC3 sample incubation, and 3) after PEBP1 treatment. The LSPR wavelength of each AuNR stabilized on the bottom coverslip slide was rapidly recorded with an imaging microscope system (SERA, NOST, Seoul, Korea). An automated surface scanning and imaging module with a high-resolution EMCCD detector (888, iXon Life, Oxford Instrument, Belfast, Northern Ireland) was connected to large-area (130×130 μm) computer-assisted high-speed LSPR mapping through a single click. The LSPR mapping results associated with the dark-field images were visualized on a monitor with RAON computer software (NOST, Seoul, Korea), and the plasmon shift (Δλmax) of each LSPR wavelength was calculated using OriginPro 9 software.
Then, the LSPR peak shift of the Caov-3 cell line treated with bafilomycin A or not treated therewith was represented in the form of a cumulative bar graph, as shown in FIG. 13. Here, the regular and hatched boxes represent the measured first and second LSPR shifts, respectively, and error bars correspond to the standard errors measured in 60 immuno-AuNRs.

BT-474 [6] = experiment: LC3 nanoplasmonic biosensor analysis of cell lysates of BT-474 cells; settings: 12 hours
Description: as §2
as §3, with “Thereafter, at least 10 μL of LC3 sample and PEBP1 (2 μg mL^−1) were injected into the chamber and incubated for 4 hours and 30 minutes, respectively, and contaminants were washed with ultrapure water before biosensing.” left out
as §4, with “An automated surface scanning and imaging module with a high-resolution EMCCD detector (888, iXon Life, Oxford Instrument, Belfast, Northern Ireland) was connected to large-area (130×130 μm) computer-assisted high-speed LSPR mapping through a single click.” left out

[7] = before the additional treatment (read as 50 nM Baf A alone)

CO/C1=C\C(C)=C\[C@@H](C)[C@@H](O)[C@@H](C)C/C(C)=C/C=C/[C@H](OC)[C@@H]([C@@H](C)[C@@H](O)[C@H](C)[C@@]2(O)C[C@@H](O)[C@H](C)[C@@H](C(C)C)O2)OC1=O [Baf A, bafilomycin A]
change of first-step LSPR Δλmax and LC3-II ratio (MDA-MB-231 [1]; 50 nM Baf A, versus no Baf A): greater first-step LSPR Δλmax and an increased LC3-II ratio | first-step LSPR Δλmax (MDA-MB-231 [1]; [7]): 10.40±0.35 nm | cell viability over time (MDA-MB-231 [2]): gradual cell death | cell viability over time (BT-474 [3]): gradual cell death | LC3 expression by Western blotting and ELISA (Caov-3 cell line [4]): LC3-II accumulation was induced | LC3-II composition (Equation 1) (Caov-3 cell line [5]; Baf A for 20 minutes): 6.78% | LC3-II composition (Equation 1) (Caov-3 cell line [5]; Baf A for 24 hours): 78.8% | first LSPR peak shift (Caov-3 cell line [5]; Baf A for 24 hours): 10.2±0.25 nm | second LSPR peak shift (Caov-3 cell line [5]; Baf A for 24 hours, after PEBP1): 1.53±0.29 nm | change of first-step LSPR Δλmax and LC3-II ratio (BT-474 [6]; 50 nM Baf A, versus no Baf A): greater first-step LSPR Δλmax and an increased LC3-II ratio | LC3-II ratio (Equation 1) (BT-474 [6]; [7]): 68.1% | first-step LSPR Δλmax (BT-474 [6]; [7]): 7.23±0.33 nm
